Results: the supplement of paper PMC10307832

What was measured:
Assay in all cases: relative viability (nuclei count vs DMSO), 5 days (fraction); higher = more cells survive
Idelalisib + Linsitinib = compound: CC[C@H](Nc1ncnc2[nH]cnc12)c1nc2cccc(F)c2c(=O)n1-c1ccccc1 [Idelalisib] + C[C@]1(O)C[C@@H](c2nc(-c3ccc4ccc(-c5ccccc5)nc4c3)c3c(N)nccn32)C1 [Linsitinib] (partner 1 µM)
Summary of the method: (§1)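 Lung cancer cell lines, seeded in 1536-well plates, were treated the following day by pin tool with a single drug or with five library-drug doses (not always all listed) in √10 steps on top of a fixed anchor-drug dose. Cells were fixed and nuclei stained in one step after 5 days, and nuclei were counted. Relative viability is the nuclei count for treated wells divided by that for vehicle wells, reported as medians of duplicate plates.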

Pemetrexed + Phenformin = compound: Nc1nc2[nH]cc(CCc3ccc(C(=O)N[C@@H](CCC(=O)O)C(=O)O)cc3)c2c(=O)[nH]1 [Pemetrexed] + N=C(N)NC(=N)NCCc1ccccc1 [Phenformin] (partner 250 µM)
Summary of the method: as §1

Idelalisib + Bortezomib = compound: CC[C@H](Nc1ncnc2[nH]cnc12)c1nc2cccc(F)c2c(=O)n1-c1ccccc1 [Idelalisib] + CC(C)C[C@H](NC(=O)[C@H](Cc1ccccc1)NC(=O)c1cnccn1)B(O)O [Bortezomib] (partner 0.002 µM)
Summary of the method: as §1

Pemetrexed + Navitoclax = compound: Nc1nc2[nH]cc(CCc3ccc(C(=O)N[C@@H](CCC(=O)O)C(=O)O)cc3)c2c(=O)[nH]1 [Pemetrexed] + CC1(C)CCC(c2ccc(Cl)cc2)=C(CN2CCN(c3ccc(C(=O)NS(=O)(=O)c4ccc(N[C@H](CCN5CCOCC5)CSc5ccccc5)c(S(=O)(=O)C(F)(F)F)c4)cc3)CC2)C1 [Navitoclax] (partner 0.5 µM)
Summary of the method: as §1

Row | Cell Line | relative viability (Idelalisib + Linsitinib; first compound 0.04 µM) | relative viability (Idelalisib + Linsitinib; first compound 0.1265 µM) | relative viability (Idelalisib + Linsitinib; first compound 0.4 µM) | relative viability (Idelalisib + Linsitinib; first compound 1.265 µM) | relative viability (Idelalisib + Linsitinib; first compound 4 µM) | relative viability (Pemetrexed + Phenformin; first compound 0.006325 µM) | relative viability (Pemetrexed + Phenformin; first compound 0.02 µM) | relative viability (Pemetrexed + Phenformin; first compound 0.06325 µM) | relative viability (Pemetrexed + Phenformin; first compound 0.2 µM) | relative viability (Idelalisib + Bortezomib; first compound 0.04 µM) | relative viability (Idelalisib + Bortezomib; first compound 0.1265 µM) | relative viability (Idelalisib + Bortezomib; first compound 0.4 µM) | relative viability (Idelalisib + Bortezomib; first compound 1.265 µM) | relative viability (Idelalisib + Bortezomib; first compound 4 µM) | relative viability (Pemetrexed + Navitoclax; first compound 0.002 µM) | relative viability (Pemetrexed + Navitoclax; first compound 0.006325 µM) | relative viability (Pemetrexed + Navitoclax; first compound 0.02 µM) | relative viability (Pemetrexed + Navitoclax; first compound 0.06325 µM) | relative viability (Pemetrexed + Navitoclax; first compound 0.2 µM) | relative viability (Pemetrexed + Phenformin; first compound 0.002 µM)
1 | NCI-H1437 | 1.05 | 1.09 | 0.974 | 1.02 | 1.05 | 0.348 | 0.281 | 0.196 | 0.163 | 0.567 | 0.532 | 0.452 | 0.833 | 0.37 | 0.988 | 1.05 | 1.02 | 0.575 | 0.291 | –
2 | NCI-H1651 | 0.982 | 0.903 | 0.789 | 0.923 | 0.714 | 0.354 | 0.377 | 0.285 | 0.368 | 1 | 0.913 | 0.939 | 1.01 | 1.02 | 0.906 | 0.977 | 1.01 | 0.938 | 0.968 | 0.299
3 | NCI-H1666 | 0.881 | 0.873 | 0.73 | 0.629 | 0.552 | 0.55 | 0.625 | 0.551 | 0.537 | 1.02 | 0.866 | 0.742 | 0.849 | 0.779 | 0.877 | 0.717 | 0.915 | 0.711 | 0.419 | 0.577
4 | NCI-H1734 | 0.944 | 0.814 | 0.765 | 0.791 | 0.597 | 0.343 | 0.458 | 0.373 | 0.386 | 0.813 | 1.07 | 0.828 | 0.922 | 0.725 | 0.826 | 0.817 | 0.933 | 0.813 | 0.656 | 0.459
5 | NCI-H1755 | 1.01 | 0.959 | 0.947 | 0.907 | 0.786 | 0.409 | 0.647 | 0.627 | 0.507 | 0.931 | 0.939 | 0.937 | 1.05 | 0.85 | 0.94 | 0.918 | 1.03 | 0.992 | 0.898 | 0.594
6 | NCI-H1792 | 0.242 | 0.498 | 0.508 | 0.443 | 0.461 | 0.368 | 0.297 | 0.252 | 0.272 | 0.552 | 0.952 | 0.844 | 0.968 | 0.843 | 0.59 | 0.823 | 0.579 | 0.564 | 0.585 | 0.311
7 | NCI-H1915 | 1.19 | 1.15 | 1.04 | 1.17 | 1.07 | 0.39 | 0.373 | 0.357 | 0.381 | 0.968 | 1.03 | 0.928 | 1.04 | 0.997 | 0.773 | 0.757 | 0.772 | 0.764 | 0.783 | 0.358
8 | NCI-H1975 | 0.98 | 1.03 | 0.882 | 0.937 | 0.772 | 0.39 | 0.413 | 0.32 | 0.237 | 0.34 | 0.374 | 0.385 | 0.371 | 0.343 | – | 1.19 | 1.1 | 1.1 | 0.731 | 0.331
9 | NCI-H1993 | 0.824 | 0.673 | 0.662 | 0.756 | 0.66 | 0.455 | 0.493 | 0.532 | 0.489 | 1.14 | 1.22 | 0.852 | 0.976 | 0.771 | 0.808 | 0.832 | 0.859 | 0.917 | 0.804 | 0.445
10 | NCI-H2009 | 1.22 | 1.28 | 1.11 | 1.16 | 0.887 | 0.494 | 0.539 | 0.47 | 0.477 | 1.02 | 1.07 | 0.995 | 1.14 | 0.991 | 1.15 | 1.11 | 1.18 | 1.12 | 1.04 | 0.466
11 | NCI-H2023 | 0.662 | 0.556 | 0.515 | 0.547 | 0.273 | 0.397 | 0.473 | 0.354 | 0.203 | 1.11 | 1.09 | 0.681 | 1.03 | 0.871 | 0.972 | 1.02 | 0.991 | 0.942 | 0.459 | 0.343
12 | NCI-H2085 | 0.912 | 1.03 | 0.8 | 0.579 | 0.437 | 0.685 | 0.735 | 0.808 | 0.779 | 0.916 | 1.08 | 0.983 | 1.06 | 0.848 | 1.05 | 1.18 | 1.07 | 1.12 | 1.15 | 0.664
13 | NCI-H2087 | 0.937 | 1.04 | 1.09 | 1.06 | 0.728 | 0.446 | 0.475 | 0.473 | 0.47 | 0.765 | 1.01 | 0.787 | 1.07 | 0.671 | 0.946 | 0.951 | 0.951 | 0.749 | 0.746 | 0.397
14 | NCI-H2126 | 0.71 | 0.715 | 0.685 | 0.698 | 0.625 | 0.555 | 0.574 | 0.507 | 0.486 | 1.14 | 1.15 | 1.13 | 1.14 | 1.21 | 0.828 | 0.827 | 0.882 | 0.833 | 0.82 | 0.536
15 | NCI-H2228 | 0.66 | 0.68 | 0.586 | 0.768 | 0.511 | – | 0.268 | 0.2 | 0.184 | 1.07 | 0.983 | 1.09 | 1.05 | 1.03 | 0.739 | 0.87 | 0.964 | 0.696 | 0.368 | 0.308
16 | NCI-H2347 | 0.931 | 0.884 | 0.857 | 1.14 | 0.514 | 0.369 | 0.484 | 0.412 | 0.387 | 0.971 | 0.982 | 0.971 | 0.774 | 0.799 | 0.659 | 0.805 | 0.776 | 0.619 | 0.391 | 0.203
